Where two headings read alike, the source gives them in different places.
Key:
Dopamine transporter (h) = target: T1, Dopamine transporter (h) (Homo sapiens, UniProt Q01959); assay: Dopamine transporter (h) (antagonist radioligand) competition binding; conditions: for nH: Dopamine transporter (h) (antagonist radioligand)
T1 construct: Eurofins/Cerep (contract testing)
Method: (§1) Compounds (1) and (2) were tested at several concentrations for IC50 or EC50 determination at target receptors. […] For antagonist assays, Kb affinity values were calculated from IC50 values using GraphPad Prism 9 (San Diego, Calif. USA).

[1] = target: T2, Norepinephrine transporter (Homo sapiens, UniProt P23975); assay: Norepinephrine transporter uptake (h); format: cell-based
T2 construct: Eurofins/Cerep (contract testing)
Method: For antagonist assays, Kb affinity values were calculated from IC50 values using GraphPad Prism 9 (San Diego, Calif. USA).

M2 (h) = target: T3, M2 (h) (Homo sapiens, UniProt P08172); assay: M2 (h) antagonist effect, cAMP HTRF cellular functional assay; format: cell-based
T3 construct: expressed in transfected cells; host or cells: CHO cells (human recombinant)
T3 sequence (P08172 1-466): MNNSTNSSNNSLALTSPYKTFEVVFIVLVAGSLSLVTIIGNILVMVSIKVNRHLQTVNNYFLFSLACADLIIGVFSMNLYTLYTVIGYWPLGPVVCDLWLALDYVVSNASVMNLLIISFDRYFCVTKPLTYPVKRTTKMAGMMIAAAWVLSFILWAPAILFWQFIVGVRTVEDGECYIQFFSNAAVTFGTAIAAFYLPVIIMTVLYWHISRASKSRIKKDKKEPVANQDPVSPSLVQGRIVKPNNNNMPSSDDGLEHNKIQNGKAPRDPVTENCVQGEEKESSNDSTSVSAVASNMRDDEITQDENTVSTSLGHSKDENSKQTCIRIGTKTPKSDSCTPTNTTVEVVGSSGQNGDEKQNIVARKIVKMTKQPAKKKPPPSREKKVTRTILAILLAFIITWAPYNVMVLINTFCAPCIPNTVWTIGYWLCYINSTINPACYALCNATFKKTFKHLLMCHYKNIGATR
Method: as §1

human M1R = target: T4, human M1R (Homo sapiens, UniProt P11229); assay: biochemical; format: binding
T4 construct: host or cells: HEK293 (CRL-1573, ATCC), transient
T4 sequence (P11229 1-460): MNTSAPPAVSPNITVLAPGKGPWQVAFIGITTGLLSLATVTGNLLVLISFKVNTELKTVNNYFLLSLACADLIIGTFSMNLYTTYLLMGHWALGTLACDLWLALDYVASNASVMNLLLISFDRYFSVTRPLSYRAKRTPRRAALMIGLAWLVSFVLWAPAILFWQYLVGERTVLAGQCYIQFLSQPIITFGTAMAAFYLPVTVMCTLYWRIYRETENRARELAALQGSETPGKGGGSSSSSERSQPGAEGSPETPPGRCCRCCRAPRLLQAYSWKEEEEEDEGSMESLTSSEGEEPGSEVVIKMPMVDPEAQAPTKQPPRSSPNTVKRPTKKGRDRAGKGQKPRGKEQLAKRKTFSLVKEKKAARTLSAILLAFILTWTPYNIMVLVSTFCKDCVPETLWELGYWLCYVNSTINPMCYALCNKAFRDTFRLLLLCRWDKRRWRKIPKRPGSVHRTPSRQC
Method: (§2) Radioligand Competition Binding: Radioligand competition binding assays were conducted using membranes collected from transiently transfected HEK293 cells (P<20 from a procured stock, CRL-1573, ATCC, Manassas, Va., USA) as previously described (Chen, Y., et al. Drug Test Anal 11, 990-998). Briefly, cells ˜90% confluent in 10 cm plates were transfected with 5 μg human M1R, M2R, M3R, M4R or […] cDNA (cDNA resource center, Bloomsburg, Pa., USA) using a lipid-based method (LipoD293 reagent, SignaGen Laboratories, Rockville, Md., USA). Membranes were collected by centrifugation about 48 hours later and stored at −80° C. until used. […] After a 90-minute incubation at room temperature on a shaker, contents from the plates were rapidly filtered through GF/B fiberglass filter mats, pre-soaked with ice cold 50 mM Tris buffer (pH 7.4), using a Microbeta Filtermat-96 cell harvester (Perkin Elmer, Waltham, Mass., USA). Approximately 200 mL of ice cold, 50 mM Tris buffer was then vacuumed through filter mats to wash away unbound radioligand. Filter mats were dried on a hot plate and soaked in Betaplate (Perkin Elmer, Waltham, Mass., USA) scintillation fluid in plastic bags. Bags were sealed and placed in cassettes. Radioactivity was measured in a Microbeta2 Microplate Counter (Perkin Elmer, Waltham, Mass., USA), and counts per minute corresponding to each well on the plates were recorded. For full dose-response competition binding assays, increasing half-log unit concentrations of five unsubstituted PSCs were tested at M2Rs and M1Rs, with the same procedures described above.
(§3) Curve Fitting and Statistical Analyses: All data were analyzed by GraphPad 8.3.0 (San Diego, Calif., USA). Ki values were determined from data fit to both one- and two-site models. […] EC50 and IC50 values from functional assays were determined from data fit to the log(agonist) vs. response (three parameters) or log(inhibitor) vs. response (three parameters) model, respectively. Kb values were calculated from IC50 values using the Cheng-Prusoff equation with modification (see, e.g., Leff, P., and Dougall, I. G. (1993) Trends Pharmacol Sci 14, 110-112): Kb=IC50/((2+([A]/[A50])nH)1/nH−1)

human M3R = target: T5, human M3R (Homo sapiens, UniProt P20309); assay: biochemical; format: binding
T5 construct: host or cells: HEK293 (CRL-1573, ATCC), transient
Method: as §2, §3

human M5R = target: T6, human M5R (Homo sapiens, UniProt P08912); assay: [3H]Scopolamine radioligand competition binding at M5R
T6 construct: host or cells: HEK293 (CRL-1573, ATCC), transient
T6 sequence (P08912 1-532): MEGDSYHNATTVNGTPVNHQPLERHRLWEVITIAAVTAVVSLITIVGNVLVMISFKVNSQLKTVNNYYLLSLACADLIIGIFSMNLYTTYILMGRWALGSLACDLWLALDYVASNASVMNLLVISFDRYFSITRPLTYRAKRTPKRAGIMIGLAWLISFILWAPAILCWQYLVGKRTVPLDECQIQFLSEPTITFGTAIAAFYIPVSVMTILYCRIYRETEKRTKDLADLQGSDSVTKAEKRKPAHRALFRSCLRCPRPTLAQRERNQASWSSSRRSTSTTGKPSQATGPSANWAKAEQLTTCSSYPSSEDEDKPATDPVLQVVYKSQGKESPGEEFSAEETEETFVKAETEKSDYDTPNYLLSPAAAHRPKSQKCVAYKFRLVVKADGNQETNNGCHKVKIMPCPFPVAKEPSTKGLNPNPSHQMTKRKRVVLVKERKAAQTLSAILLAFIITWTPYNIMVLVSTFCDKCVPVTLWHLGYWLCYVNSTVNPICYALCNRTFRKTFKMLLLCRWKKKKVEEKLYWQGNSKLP
Method: as §2, §3

[2] = human muscarinic M1 (N = 6), [3H]-N-methylscopolamine, read-out: Affinities, Ki ± SEM, nM M1
[3] = human muscarinic M3 (N = 5), [3H]-N-methylscopolamine, read-out: Affinities, Ki ± SEM, nM M3

T1 sequence (Q01959 whole entry): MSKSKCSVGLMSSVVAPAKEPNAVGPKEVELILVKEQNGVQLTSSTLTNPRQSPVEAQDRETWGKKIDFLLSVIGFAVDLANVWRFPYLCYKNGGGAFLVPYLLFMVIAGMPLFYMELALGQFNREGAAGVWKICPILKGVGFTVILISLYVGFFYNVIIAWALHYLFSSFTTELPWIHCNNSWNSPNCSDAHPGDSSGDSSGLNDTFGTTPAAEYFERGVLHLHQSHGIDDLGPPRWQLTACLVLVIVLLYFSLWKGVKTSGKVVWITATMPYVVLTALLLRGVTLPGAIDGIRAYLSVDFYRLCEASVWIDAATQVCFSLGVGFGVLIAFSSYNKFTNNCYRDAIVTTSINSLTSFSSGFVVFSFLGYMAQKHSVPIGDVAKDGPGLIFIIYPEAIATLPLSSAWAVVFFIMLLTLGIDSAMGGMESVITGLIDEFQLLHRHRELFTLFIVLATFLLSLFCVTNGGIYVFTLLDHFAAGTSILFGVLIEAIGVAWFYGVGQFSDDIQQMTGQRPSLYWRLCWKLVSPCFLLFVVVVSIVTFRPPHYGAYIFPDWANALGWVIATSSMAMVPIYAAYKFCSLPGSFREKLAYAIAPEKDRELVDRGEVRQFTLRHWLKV
T5 sequence (P20309 whole entry): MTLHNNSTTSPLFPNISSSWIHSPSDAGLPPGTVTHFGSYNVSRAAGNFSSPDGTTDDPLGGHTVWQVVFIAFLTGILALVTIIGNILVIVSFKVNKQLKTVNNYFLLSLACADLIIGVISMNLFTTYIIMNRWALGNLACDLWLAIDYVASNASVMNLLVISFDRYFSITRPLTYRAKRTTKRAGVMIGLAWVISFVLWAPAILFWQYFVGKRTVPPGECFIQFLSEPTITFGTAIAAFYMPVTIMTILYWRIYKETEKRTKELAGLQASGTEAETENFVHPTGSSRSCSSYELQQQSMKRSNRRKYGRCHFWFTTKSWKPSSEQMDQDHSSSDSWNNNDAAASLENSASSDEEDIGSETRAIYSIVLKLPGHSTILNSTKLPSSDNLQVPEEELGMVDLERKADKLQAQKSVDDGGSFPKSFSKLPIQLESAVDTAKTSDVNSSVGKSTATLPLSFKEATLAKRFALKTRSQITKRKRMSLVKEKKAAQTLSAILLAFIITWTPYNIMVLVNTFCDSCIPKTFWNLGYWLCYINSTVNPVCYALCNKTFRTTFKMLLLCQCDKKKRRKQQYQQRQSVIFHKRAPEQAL
T2 sequence (P23975 whole entry): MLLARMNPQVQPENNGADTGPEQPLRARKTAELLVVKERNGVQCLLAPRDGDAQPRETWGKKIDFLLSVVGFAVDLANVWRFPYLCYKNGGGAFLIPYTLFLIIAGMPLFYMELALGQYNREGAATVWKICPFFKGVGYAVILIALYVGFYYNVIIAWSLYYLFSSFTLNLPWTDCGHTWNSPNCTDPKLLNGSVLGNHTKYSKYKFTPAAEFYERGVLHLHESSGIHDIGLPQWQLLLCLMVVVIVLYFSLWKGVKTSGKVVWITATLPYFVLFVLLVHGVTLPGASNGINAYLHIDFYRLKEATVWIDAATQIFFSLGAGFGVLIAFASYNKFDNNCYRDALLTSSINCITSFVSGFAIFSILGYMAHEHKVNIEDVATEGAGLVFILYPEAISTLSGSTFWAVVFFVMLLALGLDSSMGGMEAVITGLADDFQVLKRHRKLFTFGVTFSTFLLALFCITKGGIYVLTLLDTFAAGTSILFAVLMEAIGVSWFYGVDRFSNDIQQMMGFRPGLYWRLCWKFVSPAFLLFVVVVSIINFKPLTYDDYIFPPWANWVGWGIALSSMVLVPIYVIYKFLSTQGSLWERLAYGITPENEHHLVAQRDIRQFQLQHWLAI

Row | Structure (SMILES) | IC50 (Dopamine transporter (h)) [nM] | Ki (Dopamine transporter (h)) [nM] | nH (Dopamine transporter (h)) | IC50 [1] [nM] | IC50 (M2 (h)) [nM] | Kb (M2 (h)) [nM] | Ki (human M1R; [2]) [nM] | Ki (human M3R; [3]) [nM] | Ki (human M5R) [nM] | fold increase in M1R affinity from α-PPP (human M1R) [fold] | Ki (human M1R; estimate from 1 and 10 μM concentrations (N = 2), N.C. = <5% displacement of radioligand at 10 μM, read-out: estimated pKi at M1R (converted)) [nM] | Ki (human M1R; full dose-response [3H]Scopolamine competition binding, α-PPP and α-PBP interpolated, read-out: pKi at M1R (converted)) [nM] | Ki (human M3R; estimate from 1 and 10 μM concentrations (N = 2), N.C. = <5% displacement of radioligand at 10 μM, read-out: estimated pKi at M3R (converted)) [nM]
1 | CCCCC(C(=O)c1ccccc1)N1CCCCCC1 (centres unmarked) [Compound (2), 2-(azepan-1-yl)-1-phenylhexan-1-one] | 100 | 54 | 0.9 | 1100 | 2000 | 160 | 1490 | 988 | 1040 |  |  |  | 
2 | CCCCC(C(=O)c1ccccc1)N1CCCC1 (stereo not drawn) [α-PHP, 1-phenyl-2-(pyrrolidin-1-yl)hexan-1-one] |  |  |  |  |  |  |  |  | 1510 | 121 | 2570 | 1580 | 1660
3 | CCCCC(C(=O)c1ccccc1)N1CCCCC1 (centres unmarked) [Compound (1), 1-phenyl-2-(piperidin-1-yl)hexan-1-one] | 72 | 38 | 1 | 1300 | 1700 | 120 | 1010 | 994 | 679 |  |  |  | 

Reference: patent publication US11912705B2, “Cathinone derivatives, pharmaceutical formulations, and methods” (The Corporation of Mercer University, priority 2020, dated 2024)
